This passage reports IC50 and Kd results from patent publication US20220324835A1 (Nurix Therapeutics, Inc., priority 2018, published 2022).

Assay [1] has as its target T1, Cbl-b (Homo sapiens, UniProt Q13191). As to the kind of experiment: Cbl-b inhibition assay (Cbl-b activity assay, FRET, Biological Example 1; 100 mM NaCl, 60 nM Src kinase). It counts as biochemical. Conditions: upper bound stated in text lists; read-out: IC50 values in the Cbl-b inhibition assay of Biological Example 1. The essentials:
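Here, the E2 UbcH5B, irreversibly linked to Bodipy-fluorescein ubiquitin, binds Cbl-b once Src kinase phosphorylates it; Cbl-b carries an N-terminal biotinylated Avi-tag captured by streptavidin-terbium. An absent FRET signal indicates inhibition.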

For assay [2], the target named is Cbl-b (residues 36-427) (Homo sapiens, UniProt Q13191). As to the kind of experiment: Cbl-b binding assay (SPR, Biacore T200). The conditions noted are these: 20° C., 1:1 binding model. Summed up: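 Steps: capture protein on NeutrAvidin surface; inject compound dilutions (8 or 10 points from 100 or 50 μM) 50 s; allow 90-180 s dissociation; regenerate 20 s with 0.3 M NaCl. Runs at 20° C in HEPES pH 7.5/100 mM NaCl/2% DMSO; 1:1 fitting.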
Cbl-b (residues 36-427), sequence (Q13191 36-427): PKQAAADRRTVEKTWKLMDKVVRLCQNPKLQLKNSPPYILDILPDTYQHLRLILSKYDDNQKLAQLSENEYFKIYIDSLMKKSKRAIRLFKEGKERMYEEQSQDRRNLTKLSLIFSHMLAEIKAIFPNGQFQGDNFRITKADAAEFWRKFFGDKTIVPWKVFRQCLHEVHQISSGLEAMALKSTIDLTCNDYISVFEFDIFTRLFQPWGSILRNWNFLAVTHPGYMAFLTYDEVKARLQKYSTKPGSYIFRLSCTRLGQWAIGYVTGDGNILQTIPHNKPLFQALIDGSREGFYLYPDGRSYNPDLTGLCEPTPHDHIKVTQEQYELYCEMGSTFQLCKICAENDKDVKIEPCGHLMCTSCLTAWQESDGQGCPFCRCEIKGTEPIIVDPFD
In general terms: SPR reads the build-up and loss of mass on a sensor chip optically.

In assay [3] the target is T1, Cbl-b. In words: Cbl-b activity assay (Cbl-b inhibition assay), TR-FRET of Cbl-b interaction with UbcH5B-Ub. Format: biochemical. Conditions: assay buffer with 100 mM NaCl, 60 nM Src kinase; read-out: Cbl-b activity IC50. The essentials:
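UbcH5B (C85K) conjugated to N-terminally Bodipy-Fluorescein-labeled ubiquitin served as the fluorescent partner. After compound preincubation, Src kinase (60 nM) with 1 mM ATP and 5 mM MgCl2 (final) was added for 1.5 h, followed by a further 1 h incubation. Some values were obtained with 50 mM NaCl and 30 nM Src.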
(TR-FRET usually uses a lanthanide donor and a delayed reading to cut background.)

Molecules are shown by their SMILES. Some results are limits rather than exact numbers.

T1 sequence (Q13191 36-427): as above

With `C[C@H](Cc1nncn1C)c1cccc(NC(=O)c2cc(C(=O)NCC(C)(C)O)ccn2)c1` [Compound 226, (R)-N^4-(2-hydroxy-2-methylpropyl)-N^2-(3-(1-(4-methyl-4H-1,2,4-triazol-3-yl)propan-2-yl)phenyl)pyridine-2,4-dicarboxamide], the IC50 in assay [1] is at most 10 µM; in assay [3], 3 to 10 µM. The Kd in assay [2] was in the range of 3 to 10 µM.
For `C[C@H](Cc1nncn1C)c1cccc(NC(=O)c2cc(C(=O)N3CCC(C)(O)CC3)ccn2)c1` [Compound 227, (R)-4-(4-hydroxy-4-methylpiperidine-1-carbonyl)-N-(3-(1-(4-methyl-4H-1,2,4-triazol-3-yl)propan-2-yl)phenyl)picolinamide], the IC50 in assay [1] was at most 10 µM; in assay [3], 1 to 3 µM. This molecule also registered a Kd in assay [2] of 3 to 10 µM.
On the same counts, the results for `C[C@H](Cc1nncn1C)c1cccc(NC(=O)c2cc(C(=O)N3CC[C@](C)(N)C3)ccn2)c1` [Compound 229, 4-((S)-3-amino-3-methylpyrrolidine-1-carbonyl)-N-(3-((R)-1-(4-methyl-4H-1,2,4-triazol-3-yl)propan-2-yl)phenyl)picolinamide] are at most 10 µM, 1 to 3 µM and 1 to 3 µM.
On the same counts, the results for `C[C@H](Cc1nncn1C)c1cccc(NC(=O)c2cc(C(=O)N3CCC(O)C3(C)C)ccn2)c1` (stereo partly drawn) [Compound 231, 4-(3-hydroxy-2,2-dimethylpyrrolidine-1-carbonyl)-N-(3-((R)-1-(4-methyl-4H-1,2,4-triazol-3-yl)propan-2-yl)phenyl)picolinamide] are at most 10 µM, 1 to 3 µM and 0.1 to 0.3 µM.
On to `C[C@H](Cc1nncn1C)c1cccc(NC(=O)c2cc(C(=O)N3CCC4(COC4)C3)ccn2)c1` [Compound 233, N-[3-[(2R)-1-(4-methyl-4H-1,2,4-triazol-3-yl)propan-2-yl]phenyl]-4-[2-oxa-6-azaspiro[3.4]octane-6-carbonyl]pyridine-2-carboxamide], for which the IC50 in assay [1] is at most 10 µM; in assay [3], 3 to 10 µM. The molecule also showed a Kd in assay [2] of 3 to 10 µM.
Take `C[C@H](Cc1nncn1C)c1cccc(NC(=O)c2cc(C(=O)N3C[C@@H]4[C@@H](O)[C@@H]4C3)ccn2)c1` [Compound 234, 4-[(1R,5S,6R)-6-hydroxy-3-azabicyclo[3.1.0]hexane-3-carbonyl]-N-[3-[(2R)-1-(4-methyl-4H-1,2,4-triazol-3-yl)propan-2-yl]phenyl]pyridine-2-carboxamide]: the IC50 is at most 10 µM in assay [1] and 1 to 3 µM in assay [3]. The Kd in assay [2] lay in the range of 1 to 3 µM.
With `C[C@H](Cc1nncn1C)c1cccc(NC(=O)c2cc(C(=O)N3C[C@H](O)[C@@H](F)C3)ccn2)c1` [Compound 235, 4-[(3S,4S)-3-fluoro-4-hydroxypyrrolidine-1-carbonyl]-N-[3-[(2R)-1-(4-methyl-4H-1,2,4-triazol-3-yl)propan-2-yl]phenyl]pyridine-2-carboxamide], the IC50 in assay [1] is at most 10 µM; in assay [3], 1 to 3 µM. In assay [2], this molecule yielded a Kd of 3 to 10 µM.
Consider `C[C@H](Cc1nncn1C)c1cccc(NC(=O)c2cc(C(=O)N3CC[C@H](C#N)C3)ccn2)c1` [Compound 236, 4-[(3S)-3-cyanopyrrolidine-1-carbonyl]-N-[3-[(2R)-1-(4-methyl-4H-1,2,4-triazol-3-yl)propan-2-yl]phenyl]pyridine-2-carboxamide], for which the IC50 in assay [1] was at most 10 µM; in assay [3], 1 to 3 µM. In assay [2], this molecule showed a Kd of 1 to 3 µM.
Regarding `C[C@H](Cc1nncn1C)c1cccc(NC(=O)c2cc(C(=O)N3CC[C@@H](C#N)C3)ccn2)c1` [Compound 238, 4-((R)-3-cyanopyrrolidine-1-carbonyl)-N-(3-((R)-1-(4-methyl-4H-1,2,4-triazol-3-yl)propan-2-yl)phenyl)picolinamide], the IC50 in assay [1] was at most 10 µM; in assay [3], 1 to 3 µM. Further, the Kd in assay [2] lay in the range of 1 to 3 µM.
`C[C@H](Cc1nncn1C)c1cccc(NC(=O)c2cc(C(=O)N3CC(O)C(C)(C)C3)ccn2)c1` (stereo partly drawn) [Compound 239, 4-(4-hydroxy-3,3-dimethylpyrrolidine-1-carbonyl)-N-(3-((R)-1-(4-methyl-4H-1,2,4-triazol-3-yl)propan-2-yl)phenyl)picolinamide]: the IC50 in assay [1] was at most 10 µM; in assay [3] it was 1 to 3 µM. Also, in assay [2], the Kd lay within 0.1 to 0.3 µM.
The matching figures for `CC(O)C1CN(C(=O)c2ccnc(C(=O)Nc3cccc([C@H](C)Cc4nncn4C)c3)c2)C1` (stereo partly drawn) [Compound 241, 4-(3-(1-hydroxyethyl)azetidine-1-carbonyl)-N-(3-((R)-1-(4-methyl-4H-1,2,4-triazol-3-yl)propan-2-yl)phenyl)picolinamide]: at most 10 µM, 3 to 10 µM and under 0.1 µM.
The matching figures for `C[C@H](Cc1nncn1C)c1cccc(NC(=O)c2cc(C(=O)N3CCNCC3)ccn2)c1` [Compound 242, (R)-N-(3-(1-(4-methyl-4H-1,2,4-triazol-3-yl)propan-2-yl)phenyl)-4-(piperazine-1-carbonyl)picolinamide]: at most 10 µM, 3 to 10 µM and 3 to 10 µM.
On the same counts, the results for `CNCCNC(=O)c1ccnc(C(=O)Nc2cccc([C@H](C)Cc3nncn3C)c2)c1` [Compound 244, (R)-N2-(3-(1-(4-methyl-4H-1,2,4-triazol-3-yl)propan-2-yl)phenyl)-N4-(2-(methylamino)ethyl)pyridine-2,4-dicarboxamide] are at most 10 µM, 1 to 3 µM and 1 to 3 µM.
`C[C@H](Cc1nncn1C)c1cccc(NC(=O)c2cc(C(=O)N3CCC(CO)C3)ccn2)c1` (stereo partly drawn) [Compound 245, 4-(3-(hydroxymethyl)pyrrolidine-1-carbonyl)-N-(3-((R)-1-(4-methyl-4H-1,2,4-triazol-3-yl)propan-2-yl)phenyl)picolinamide]: the IC50 in assay [1] was at most 10 µM; in assay [3], 1 to 3 µM. Besides, the Kd in assay [2] fell in the range of 3 to 10 µM.
The matching figures for `C[C@H](Cc1nncn1C)c1cccc(NC(=O)c2cc(C(=O)N3C[C@@H](F)[C@@H](O)C3)ccn2)c1` [Compound 246, cis-4-(3-fluoro-4-hydroxypyrrolidine-1-carbonyl)-N-(3-((R)-1-(4-methyl-4H-1,2,4-triazol-3-yl)propan-2-yl)phenyl)picolinamide]: at most 10 µM, 1 to 3 µM and 1 to 3 µM.
On the same counts, the results for `C[C@H](Cc1nncn1C)c1cccc(NC(=O)c2cc(C(=O)N[C@@H]3CCNC3)ccn2)c1` [Compound 247, N2-[3-[(2R)-1-(4-methyl-4H-1,2,4-triazol-3-yl)propan-2-yl]phenyl]-N4-[(3R)-pyrrolidin-3-yl]pyridine-2,4-dicarboxamide] are at most 10 µM, 3 to 10 µM and 3 to 10 µM.
The matching figures for `C[C@H](Cc1nncn1C)c1cccc(NC(=O)c2cc(C(=O)N[C@H]3CCNC3)ccn2)c1` [Compound 248, N2-(3-((R)-1-(4-methyl-4H-1,2,4-triazol-3-yl)propan-2-yl)phenyl)-N4-((s)-pyrrolidin-3-yl)pyridine-2,4-dicarboxamide]: at most 10 µM, 3 to 10 µM and 3 to 10 µM.
For the molecule `CN[C@@H]1CCN(C(=O)c2ccnc(C(=O)Nc3cccc([C@H](C)Cc4nncn4C)c3)c2)C1` [Compound 249, N-(3-((R)-1-(4-methyl-4H-1,2,4-triazol-3-yl)propan-2-yl)phenyl)-4-((R)-3-(methylamino)pyrrolidine-1-carbonyl)picolinamide], the results for the IC50 in assay [1] and in assay [3] were at most 10 µM and 1 to 3 µM, respectively. In assay [2], the Kd was 1 to 3 µM.
As for `CN[C@H]1CCN(C(=O)c2ccnc(C(=O)Nc3cccc([C@H](C)Cc4nncn4C)c3)c2)C1` [Compound 250, N-[3-[(2R)-1-(4-methyl-4H-1,2,4-triazol-3-yl)propan-2-yl]phenyl]-4-[(3S)-3-(methylamino)pyrrolidine-1-carbonyl]pyridine-2-carboxamide], the values for the IC50 in assay [1] and in assay [3] were at most 10 µM and 1 to 3 µM, respectively. The same molecule returned a Kd in assay [2] of 1 to 3 µM.
For the molecule `CC(Cc1nccn1C)c1cccc(NC(=O)c2cc(C(=O)N3CC[C@H](O)C3)ccn2)c1` (stereo partly drawn) [Compound 252, 4-((S)-3-hydroxypyrrolidine-1-carbonyl)-N-(3-(1-(1-methyl-s1H-imidazol-2-yl)propan-2-yl)phenyl)picolinamide], the IC50 in assay [1] was at most 10 µM; in assay [3] it was 3 to 10 µM. Further, the Kd in assay [2] lay within 1 to 3 µM.
As for `C[C@H](Cc1nccn1C)c1cccc(NC(=O)c2cc(C(=O)N3CC[C@H](O)C3)ccn2)c1` [Compound 252a, 4-((S)-3-hydroxypyrrolidine-1-carbonyl)-N-(3-((R)-1-(1-methyl-1H-imidazol-2-yl)propan-2-yl)phenyl)picolinamide], the results for the IC50 in assay [1] and in assay [3] were at most 10 µM and 1 to 3 µM, respectively. For the same molecule, the Kd in assay [2] is 3 to 10 µM.
The matching figures for `C[C@H](Cc1nccn1C)c1cccc(NC(=O)c2cc(C(=O)N3C[C@@H](O)C[C@H]3C)ccn2)c1` [Compound 253, 4-((2R,4S)-4-hydroxy-2-methylpyrrolidine-1-carbonyl)-N-(3-((R)-1-(1-methyl-1H-imidazol-2-yl)propan-2-yl)phenyl)picolinamide]: at most 10 µM, 3 to 10 µM and 3 to 10 µM.

In general, IC50 refers to the midpoint of a concentration-inhibition curve. By Kd is commonly meant the free concentration of one partner at which half of the binding sites on the other are occupied at equilibrium, for simple one-to-one binding. A low value points to higher affinity.
